This is an account of results in ChEMBL document CHEMBL1129392, “Design, synthesis, and evolution of a novel, selective, and orally bioavailable class of thrombin inhibitors: P1-argininal derivatives incorporating P3-P4 lactam sulfonamide moieties” (J Med Chem, 1996).

The target in test [1] is T1, Serine protease 1 (Homo sapiens, UniProt P07477). Briefly: In vitro for inhibition of serine protease Trypsin.
For test [2], the target named is T2, Prothrombin (Homo sapiens, UniProt P00734). Briefly: In vitro for inhibition of serine protease thrombin(FIIa).
The target of test [3] is T3, Coagulation factor X (Homo sapiens, UniProt P00742).
T3 sequence (P00742 41-179 limits assumed): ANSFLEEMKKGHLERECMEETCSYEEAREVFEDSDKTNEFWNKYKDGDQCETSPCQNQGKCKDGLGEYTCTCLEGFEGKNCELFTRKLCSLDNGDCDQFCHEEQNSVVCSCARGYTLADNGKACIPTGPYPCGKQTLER
T3 sequence (P00742 235-488 limits assumed): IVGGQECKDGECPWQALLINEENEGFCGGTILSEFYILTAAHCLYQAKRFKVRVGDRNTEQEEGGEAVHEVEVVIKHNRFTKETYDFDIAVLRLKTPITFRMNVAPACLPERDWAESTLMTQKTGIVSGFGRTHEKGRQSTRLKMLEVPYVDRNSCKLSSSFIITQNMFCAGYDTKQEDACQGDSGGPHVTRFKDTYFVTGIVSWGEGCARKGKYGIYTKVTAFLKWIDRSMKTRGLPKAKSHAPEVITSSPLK
Description: In vitro for inhibition of Coagulation factor X
Test [4] deals with T2, Prothrombin. Briefly: compound was tested in vitro for inhibition of serine protease thrombin(FIIa).
A further test deals with T4, Trypsin II (Bos taurus, UniProt Q29463).
T4 sequence (Q29463 whole entry): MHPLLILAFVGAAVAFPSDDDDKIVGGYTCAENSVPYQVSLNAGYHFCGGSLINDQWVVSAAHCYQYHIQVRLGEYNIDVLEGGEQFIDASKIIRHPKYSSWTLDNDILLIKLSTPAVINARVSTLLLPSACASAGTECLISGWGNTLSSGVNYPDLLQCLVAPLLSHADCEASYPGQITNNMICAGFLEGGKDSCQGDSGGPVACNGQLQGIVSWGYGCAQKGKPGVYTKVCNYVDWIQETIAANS
Nature of the test: compound was tested in vitro for inhibition of serine protease Trypsin.

Test [5] concerns the target T1, Serine protease 1. Nature of the test: compound was tested in vitro for inhibition of serine protease Trypsin; inactive.
In test [6] the target is T2, Prothrombin. Nature of the test: compound was tested in vitro for inhibition of serine protease thrombin (FIIa); inactive.
For test [7], the target named is T3, Coagulation factor X. Briefly: compound was tested in vitro for inhibition of Coagulation factor X; inactive.
Test [8] has as its target T3, Coagulation factor X. Nature of the test: compound was tested in vitro for inhibition of Coagulation factor X.

T1 sequence (P07477 whole entry): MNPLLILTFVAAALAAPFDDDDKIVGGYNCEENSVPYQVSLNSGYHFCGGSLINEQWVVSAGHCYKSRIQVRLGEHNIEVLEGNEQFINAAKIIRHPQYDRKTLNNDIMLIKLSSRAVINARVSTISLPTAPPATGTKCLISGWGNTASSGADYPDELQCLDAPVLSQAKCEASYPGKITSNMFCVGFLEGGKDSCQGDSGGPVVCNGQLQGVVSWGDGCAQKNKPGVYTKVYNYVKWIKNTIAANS

The term IC50 denotes the midpoint of a concentration-inhibition curve. Low readings indicate inhibition by little substance, high ones a need for much substance. As to `N=C(N)C1CCC[C@H](NC(=O)CN2CCC[C@H](NS(=O)(=O)CCc3ccccc3)C2=O)C1O` (stereo not given in full), the results for the 50% inhibitory concentration (IC50) on Serine protease 1 [1], against Prothrombin [2] and at Coagulation factor X [3] were 2500 nM, 420 nM and 2500 nM, respectively.
On to `N=C(N)C1CCC[C@H](NC(=O)CN2CCC[C@@H](NS(=O)(=O)Cc3ccccc3)C2=O)C1O` (stereo not given in full), for which the values for the half-maximal inhibitory concentration (IC50) against Serine protease 1 [1], against Prothrombin [2] and against Coagulation factor X [3] were 467 nM, 157 nM and 2500 nM, respectively.
The term Ki denotes the equilibrium dissociation constant of an inhibitor or competing ligand from its target. Read a low Ki as higher affinity. On to `N=C(N)C1CCC[C@H](NC(=O)CN2CCC[C@H](NS(=O)(=O)Cc3ccccc3)C2=O)C1O` (stereo not given in full), for which the half-maximal inhibitory concentration (IC50) on Serine protease 1 [1] turned out to be 791 nM; on Prothrombin [2], 6.2 nM; against Coagulation factor X [3] it was 2500 nM. This compound also had an inhibition constant (Ki) on Prothrombin [4] of 1.01 nM.
As to `CCCCS(=O)(=O)N[C@H]1CCCN(CC(=O)N[C@H]2CCCC(C(=N)N)C2O)C1=O` (stereo not given in full), the IC50 against Prothrombin [2] is 709 nM; against Coagulation factor X [3], 2500 nM; against Trypsin II, 2500 nM.
On to `CC(C)(C)OC(=O)N[C@H]1CCCN(CC(=O)N[C@H]2CCCC(C(=N)N)C2O)C1=O` (stereo not given in full), for which the IC50 at Serine protease 1 [1] came to 16800 nM; against Coagulation factor X [3] it was 2500 nM.
`N=C(N)C1CCC[C@H](NC(=O)CN2CCC[C@H](NC(=O)NS(=O)(=O)c3ccccc3)C2=O)C1O` (stereo not given in full): the IC50 entry on Serine protease 1 [5], on Prothrombin [6] and against Coagulation factor X [7] was “Not Active” in each case.
On to `N=C(N)C1CCC[C@H](NC(=O)CN2CCCC[C@H](NS(=O)(=O)c3ccccc3)C2=O)C1O` (stereo not given in full), for which the 50% inhibitory concentration (IC50) against Serine protease 1 [1] stood at 16.6 nM; on Prothrombin [2], 14.2 nM; at Coagulation factor X [3], 479 nM.
Turning to `N=C(N)C1CCC[C@H](NC(=O)CN2CCC[C@H](NC(=O)Cc3ccccc3)C2=O)C1O` (stereo not given in full), the half-inhibitory concentration (IC50) against Prothrombin [2] is 2500 nM; on Trypsin II, over 2500 nM; at Coagulation factor X [7], “Not Active”.
On to `N=C(N)C1CCC[C@H](NC(=O)CN2CCC[C@H](NS(=O)(=O)c3ccccc3)C2=O)C1O` (stereo not given in full), for which the concentration for half-maximal inhibition (IC50) against Serine protease 1 [1] was 770 nM; against Prothrombin [2], 159 nM; against Coagulation factor X [3] it was 1100 nM.
Regarding `CCCC(CCC)C(=O)N[C@@H](CC(=O)OC)C(=O)N1CCC[C@@H]1C(=O)N[C@H]1CCCC(C(=N)N)C1O` (stereo not given in full), the IC50 at Serine protease 1 [1] stood at 1.36 nM; against Prothrombin [2] it was 1.1 nM.
For the compound `N=C(N)C1CCC[C@H](NC(=O)CN2CCC[C@H](NS(=O)(=O)c3cccc4ccccc34)C2=O)[C@@H]1O` (stereo not given in full), the IC50 against Prothrombin [2] was found to be 111 nM; at Coagulation factor X [3] it was 2500 nM; on Trypsin II, 1020 nM.
The matching figures for `CC(C(=O)N[C@H]1CCCC(C(=N)N)C1O)N1CCC[C@H](NS(=O)(=O)Cc2ccccc2)C1=O` (stereo not given in full): 286 nM, 2500 nM and 293 nM.
On to `COC(=O)c1ccccc1CS(=O)(=O)N[C@H]1CCCCN(CC(=O)N[C@H]2CCCC(C(=N)N)C2O)C1=O` (stereo not given in full), for which the results for the half-inhibitory concentration (IC50) on Serine protease 1 [1], against Prothrombin [2] and at Coagulation factor X [3] were 137 nM, 1.12 nM and 471 nM, respectively. The compound further registered an inhibition constant Ki at Prothrombin [4] of 0.85 nM.
Turning to `C[C@H](C(=O)N[C@H]1CCCC(C(=N)N)C1O)N1CCCC[C@H](NS(=O)(=O)Cc2ccccc2)C1=O` (stereo not given in full), the IC50 is over 2500 nM against Serine protease 1 [1], over 2500 nM on Prothrombin [2] and “Not Active” against Coagulation factor X [7].
Turning to `N=C(N)C1CCC[C@H](NC(=O)CN2CCCC[C@H](NS(=O)(=O)Cc3ccccc3)C2=O)C1O` (stereo not given in full), the values for the concentration for half-maximal inhibition (IC50) against Serine protease 1 [1], at Prothrombin [2] and at Coagulation factor X [3] were 74.5 nM, 0.71 nM and 20.6 nM, respectively. The affinity at Prothrombin [4] corresponds to a Ki of 0.54 nM.
In the case of `N=C(N)C1CCCC(NC(=O)CN2CC[C@H](NS(=O)(=O)Cc3ccccc3)C2=O)C1O` (stereo not given in full), the concentration for half-maximal inhibition (IC50) was 2500 nM on Coagulation factor X [8], 538 nM on Trypsin II and 125 nM against Prothrombin [4].
For the compound `N=C(N)C1CCC[C@H](NC(=O)CN2CCC[C@H](NS(=O)(=O)NC3CCCCC3)C2=O)C1O` (stereo not given in full), the IC50 against Serine protease 1 [1] worked out at 147 nM; on Prothrombin [2], 235 nM; at Coagulation factor X [3], 1950 nM.
Take `CN[C@H](Cc1ccccc1)C(=O)N1CCC[C@@H]1C(=O)N[C@H]1CCCC(C(=N)N)C1O` (stereo not given in full): the IC50 against Serine protease 1 [1] was 1.52 nM; on Prothrombin [2] it was 0.7 nM; on Coagulation factor X [3] it was over 2500 nM.
